Assay results: patent US6369225B1, “Compounds having activity as inhibitors of cytochrome P450RAI” (Allergan Sales, Inc., priority 2000, dated 2002)

Columns and labels:
[1] = target: T1, P450RAI-1 (Homo sapiens, UniProt O43174); test: P450RAI-1 cell-based inhibitor assay; conditions: P450RAI-1 stably transfected HeLa cells, [3H]-RA metabolism, 3 hours at 37° C.; read-out: P450RAI INHIBITION DATA INTACT HELA IC50
T1 construct: expressed in transfected cells; host or cells: HeLa cells, stably transfected, hygromycin selection
T1 sequence (O43174 1-497): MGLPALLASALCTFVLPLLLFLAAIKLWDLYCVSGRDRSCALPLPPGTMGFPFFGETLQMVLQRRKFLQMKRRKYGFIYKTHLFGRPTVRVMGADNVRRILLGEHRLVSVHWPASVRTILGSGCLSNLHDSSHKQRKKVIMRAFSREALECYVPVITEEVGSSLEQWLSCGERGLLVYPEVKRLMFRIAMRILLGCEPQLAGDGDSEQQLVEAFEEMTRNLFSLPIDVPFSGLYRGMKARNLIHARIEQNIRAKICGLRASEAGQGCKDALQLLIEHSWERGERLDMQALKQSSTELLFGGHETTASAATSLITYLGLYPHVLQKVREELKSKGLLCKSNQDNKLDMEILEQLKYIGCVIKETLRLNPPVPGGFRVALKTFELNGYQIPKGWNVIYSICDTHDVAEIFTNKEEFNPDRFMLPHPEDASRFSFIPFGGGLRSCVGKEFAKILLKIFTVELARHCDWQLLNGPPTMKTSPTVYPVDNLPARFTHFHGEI
Protocol: P450RAI-1 stably transfected HeLa cells are maintained in […] tissue culture dishes in Modified Eagle's Medium (MEM) containing 10% Fetal Bovine Serum (FBS) and 100 μg/ml hygromycin. Exponentially growing cells are harvested by incubating in trypsin. Cells are then washed with 1× Phosphate Buffered Saline (PBS) and plated in a 48-well plate at 5×10^5 cells in 0.2 ml MEM medium containing 10% FBS and 0.05 μCi[^3H]-RA in the presence or absence of increasing concentrations of the test compounds. The compounds are diluted in 100% DMSO and then added in triplicate wells at either 10, 1 or 0.1 μM final concentration. As a positive control for RA metabolism inhibition, cells are also incubated with ketoconazole at 100, 10 and 1 μM. Cell are incubated for 3 hours at 37° C. […] The water soluble radioactivity is quantified using a β-scintillation counter. IC50 values represent the concentration of inhibitor required to inhibit all-trans-RA metabolism by 50 percent and are derived manually from log-transformed data.

[2] = target: T2, RARα (Homo sapiens, UniProt P10276); test: ligand binding assay, RARα; conditions: Kd line of EC50/(EFFICACY)/Kd, read-out: RAR Kd α
T2 sequence (P10276 1-462): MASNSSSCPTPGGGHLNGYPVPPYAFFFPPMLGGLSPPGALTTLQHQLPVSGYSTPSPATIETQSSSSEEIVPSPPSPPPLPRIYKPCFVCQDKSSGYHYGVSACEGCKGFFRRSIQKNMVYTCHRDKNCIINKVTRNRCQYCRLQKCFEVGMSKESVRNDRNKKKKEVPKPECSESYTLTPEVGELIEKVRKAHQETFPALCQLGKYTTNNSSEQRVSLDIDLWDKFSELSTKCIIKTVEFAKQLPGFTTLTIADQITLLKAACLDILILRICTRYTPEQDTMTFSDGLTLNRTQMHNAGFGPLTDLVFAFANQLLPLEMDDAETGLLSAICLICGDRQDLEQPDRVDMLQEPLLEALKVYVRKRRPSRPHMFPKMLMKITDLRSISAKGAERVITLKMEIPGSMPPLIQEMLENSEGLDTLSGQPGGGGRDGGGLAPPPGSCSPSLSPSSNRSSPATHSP
Text: (§1) Assays described below measure the ability of a compound to bind to, and/or activate various retinoid receptor subtypes. When in these assays a compound binds to a given receptor subtype and activates the transcription of a reporter gene through that subtype, then the compound is considered an agonist of that receptor subtype. […] In the below described assays the ability of the compounds to bind to RARα, RARβ, RARγ, RXRα, RXRβ and RXRγ receptors, and the ability or inability of the compounds to activate transcription of a reporter gene through these receptor subtypes can be tested.
(§2) A holoreceptor transactivation assay and a ligand binding assay which measure the antagonist/agonist like activity of the compounds of the invention, or their ability to bind to the several retinoid receptor subtypes, respectively, are described in published PCT Application No. WO WO93/11755 (particularly on pages 30-33 and 37-41) published on Jun. 24, 1993, the specification of which is also incorporated herein by reference. A detailed experimental procedure for holoreceptor transactivations has been described by Heyman et al. Cell 68, 397-406, (1992); Allegretto et al. J. Biol. Chem. 268, 26625-26633, and Mangelsdorf et al. The Retinoids: Biology, Chemistry and Medicine, pp 319-349, Raven Press Ltd., New York, which are expressly incorporated herein by reference. The results obtained in this assay are expressed in EC50 numbers, as they are also in the chimeric receptor transactivation assay. The results of ligand binding assay are expressed in Kd numbers. (See Cheng et al. Biochemical Pharmacology Vol. 22 pp 3099-3108, expressly incorporated herein by reference.)
(§3) The results if the ligand binding assay for several preferred compounds of the invention are included in Table 1.

[3] = target: T3, RARβ (Homo sapiens, UniProt P10826); test: ligand binding assay, RARβ; conditions: Kd line of EC50/(EFFICACY)/Kd, read-out: RAR Kd β
T3 sequence (P10826 1-455): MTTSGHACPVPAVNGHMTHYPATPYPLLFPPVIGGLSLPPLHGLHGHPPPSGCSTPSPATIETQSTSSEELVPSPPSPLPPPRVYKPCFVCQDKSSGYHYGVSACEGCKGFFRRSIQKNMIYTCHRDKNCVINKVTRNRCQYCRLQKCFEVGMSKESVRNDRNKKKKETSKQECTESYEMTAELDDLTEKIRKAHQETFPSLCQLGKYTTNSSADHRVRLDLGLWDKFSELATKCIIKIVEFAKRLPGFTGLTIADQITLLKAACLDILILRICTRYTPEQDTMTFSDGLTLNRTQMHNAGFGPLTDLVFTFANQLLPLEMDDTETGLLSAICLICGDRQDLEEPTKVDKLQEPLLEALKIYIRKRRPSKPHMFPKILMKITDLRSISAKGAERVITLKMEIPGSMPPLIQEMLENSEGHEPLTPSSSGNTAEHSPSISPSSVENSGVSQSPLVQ
Text: as §1
as §2, with “A detailed experimental procedure for holoreceptor transactivations has been described by Heyman et al. Cell 68, 397-406, (1992); Allegretto et al. J. Biol. Chem. 268, 26625-26633, and Mangelsdorf et al. The Retinoids: Biology, Chemistry and Medicine, pp 319-349, Raven Press Ltd., New York, which are expressly incorporated herein by reference.” left out

[4] = target: T4, RARγ (Homo sapiens, UniProt P13631); test: ligand binding assay, RARγ; conditions: Kd line of EC50/(EFFICACY)/Kd, read-out: RAR Kd γ
T4 sequence (P13631 1-454): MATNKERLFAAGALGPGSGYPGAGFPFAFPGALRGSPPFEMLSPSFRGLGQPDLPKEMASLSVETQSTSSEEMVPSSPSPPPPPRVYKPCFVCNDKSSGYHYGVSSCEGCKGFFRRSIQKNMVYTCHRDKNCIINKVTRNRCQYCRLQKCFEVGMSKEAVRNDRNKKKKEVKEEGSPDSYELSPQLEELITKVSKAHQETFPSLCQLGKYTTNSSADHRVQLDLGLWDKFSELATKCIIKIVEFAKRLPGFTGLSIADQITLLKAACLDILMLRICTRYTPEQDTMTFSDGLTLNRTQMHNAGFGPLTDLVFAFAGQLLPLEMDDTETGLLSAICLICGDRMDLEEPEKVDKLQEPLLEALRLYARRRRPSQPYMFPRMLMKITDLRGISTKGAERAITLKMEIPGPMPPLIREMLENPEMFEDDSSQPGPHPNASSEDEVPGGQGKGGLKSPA
Text: as §1, §2, §3

[5] = tested on: skin of hairless mice; test: topical skin irritation test in hairless mice; format: in vivo, mouse; conditions: topical in acetone, once daily days 1 through 5, mean ±SD, range 0-21
Text: Mice were housed individually throughout the dosing period.
Doses are disclosed as nmol/25 g.
The grading scale used is as follows:
Values can range from 0-9.
Values can range from 0-8.

| SMILES | IC50 [1] [µM] | Kd [2] [µM] | Kd [3] [µM] | Kd [4] [µM] | Cutaneous Toxicity Score (Blackjack Score) ([5]; 100 nmole (nmol/25 g)) | Cutaneous Toxicity Score (Blackjack Score) ([5]; 300 nmole (nmol/25 g)) | Cutaneous Toxicity Score (Blackjack Score) ([5]; 1000 nmole (nmol/25 g)) |
| --- | --- | --- | --- | --- | --- | --- | --- |
| Cc1cc(C#Cc2ccc(CC(=O)O)cc2)ccc1C1(OCc2ccccc2)CC1 [Compound 82, {4-[4-(1-Benzyloxycyclopropyl)-3-methyl-phenylethynyl]-phenyl}-acetic Acid] | > 10 | > 10 | > 10 | > 10 |  |  |  |
| CCc1cc(C#Cc2ccc(CC(=O)O)cc2)ccc1C1(OCc2ccccc2)CC1 [Compound 94, {4-[4-(1-Benzyloxycyclopropyl)-3-ethyl-phenylethynyl]-phenyl}-acetic Acid] | > 10 | > 10 | > 10 | > 10 |  |  |  |
| CC1(C)CN(C2CC2)Cc2ccc(C#Cc3ccc(CC(=O)O)c(F)c3)cc21 [Compound 22, [4-(2-Cyclopropyl-4,4-dimethyl-1,2,3,4-tetrahydro-isoquinoline-6-yl-ethynyl)-2-fluoro-phenyl]-acetic Acid] | 1.6 |  |  |  | 0 ± 0 | 0 ± 0 | 1 ± 1 |
| O=C(O)Cc1ccc(C#Cc2ccc(C3(OCc4ccccc4)CC3)cc2)cc1 [Compound 78, {4-[4-(1-Benzyloxycyclopropyl)-phenylethynyl]-phenyl}-acetic Acid] | > 10 | > 10 | > 10 | > 10 |  |  |  |
| CC(C)OC1(c2ccc(C#Cc3ccc(CC(=O)O)cc3)cc2)CC1 [Compound 74, {4-[4-(1-Isopropoxycyclopropyl)-phenylethynyl]-phenyl}-acetic Acid] | 3.5 | 11 | 14 | > 10 |  |  |  |
| CC1(C)CC(C)(C)c2cc(C#Cc3ccc(C(=O)O)cc3)cc(C3CC3)c2O1 [Compound 34, 4-(8-Cyclopropyl-2,2,4,4-tetramethyl-chroman-6-yl-ethynyl)-benzoic Acid] | 0.13 | 0.0615 | 0.015 | 0.0025 |  |  |  |
| CC1(C)CC2(CC2)Oc2ccc(C#Cc3ccc(CC(=O)O)cc3)cc21 [Compound 42, Benzeneacetic Acid, 4-[(3,4-dihydro-4,4-dimethylspiro[2H-1-benzopyran-2,1′-cyclopropane]-6-yl)ethynyl]-] | 0.19 | 15 | 3.64 | > 10 |  |  |  |
| CC1(C)CC(C)(C)c2cc(C#Cc3ccc(C(=O)O)c(F)c3)ccc2O1 [Compound 30, 2-Fluoro-4-(2,2,4,4-tetramethyl-chroman-6-yl-ethynyl)-benzoic Acid] | 0.28 | 0.014 | 0.0022 | 0.084 |  |  |  |
| Cc1cc(C#Cc2ccc(CC(=O)O)cc2)ccc1C1(OCC(C)(C)C)CC1 [Compound 90, {4-[4-[1-(2,2-Dimethylpropyloxy)-cyclopropyl]-3-methyl-phenylethynyl]-phenyl}-acetic Acid] | 0.95 | > 10 | > 10 | > 10 |  |  |  |
| CC1(C)CC(C)(C)c2cc(C#Cc3ccc(CC(=O)O)cc3)ccc2O1 [Compound 28, [4-(2,2,4,4-Tetramethyl-chroman-6-yl-ethynyl)phenyl]acetic Acid] | 0.34 | 21 | 4.27 | > 10 |  |  |  |
| CC1(C)CCC(=O)c2ccc(C#Cc3ccc(CC(=O)O)c(F)c3)cc21 [Compound 15, [2-Fluoro-4-(8,8-dimethyl-5-oxo-5,6,7,8-tetrahydro-naphthalene-2-yl-ethynyl)phenyl]-acetic Acid] |  |  |  |  | 1 ± 1 |  | 5 ± 2 |
| Cc1cc(C#Cc2ccc(CC(=O)O)cc2)ccc1C1(OC(C)C)CC1 [Compound 86, {4-[4-(1-Isopropoxycyclopropyl)-3-methyl-phenylethynyl]-phenyl}-acetic Acid] | 1.4 | > 10 | > 10 | > 10 |  |  |  |
| O=C(O)c1ccc(C#Cc2ccc(C3(OCc4ccccc4)CC3)cc2)cc1 [Compound 77, 4-[4-(1-Benzyloxycyclopropyl)-phenylethynyl]-benzoic Acid] | > 10 | 2.21 | 0.225 | 0.016 |  |  |  |
